One series addresses T1, human mGlu 5a receptor (Homo sapiens, UniProt P41594).
T1 construct: expressed in transfected cells; host or cells: EBNA cells (transient transfection); cell membrane homogenates
Nature of the series: [3H]MPEP competition binding on membranes of EBNA cells transfected with human mGlu 5a receptor. Conditions: [3H]MPEP (2 nM) competition, 1 h at 4° C., EBNA cell membranes. The method, then:
The pharmacological activity of the compounds was tested using the following method: For binding experiments, cDNA encoding human mGlu 5a receptor was transiently transfected into EBNA cells using a procedure described by Schlaeger and Christensen [Cytotechnology 15:1-13 (1998)]. Cell membrane homogenates were stored at −80° C. until the day of assay where upon they were thawed and resuspended and polytronised in 15 mM Tris-HCl, 120 mM NaCl, 100 mM KCl, 25 mM CaCl2, 25 mM MgCl2 binding buffer at pH 7.4 to a final assay concentration of 20 μg protein/well.
Saturation isotherms were determined by addition of twelve [^3H]MPEP concentrations (0.04-100 nM) to these membranes (in a total volume of 200 μl) for 1 h at 4° C. Competition experiments were performed with a fixed concentration of [^3H]MPEP (2 nM) and IC50 values of test compounds evaluated using 11 concentrations (0.3-10,000 nM). Incubations were performed for 1 h at 4° C.
At the end of the incubation, membranes were filtered onto unifilter (96-well white microplate with bonded GF/C filter preincubated 1 h in 0.1% PEI in wash buffer, Packard Bio-Science, Meriden, Conn.) with a Filtermate 96 harvester (Packard BioScience) and washed 3 times with cold 50 mM Tris-HCl, pH 7.4 buffer. Nonspecific binding was measured in the presence of 10 μM MPEP. The radioactivity on the filter was counted (3 min) on a Packard Top-count microplate scintillation counter with quenching correction after addition of 45 μl of microscint 40 (Canberra Packard S. A., Zürich, Switzerland) and shaking for 20 min.
For binding experiments the Ki values of the compounds tested are given. The Ki value is defined by the following formula: […]
in which the IC50 values are those concentrations of the compounds tested which cause 50% inhibition of the competing radioligand ([^3H]MPEP). L is the concentration of radioligand used in the binding experiment and the Kd value of the radioligand is empirically determined for each batch of membranes prepared.

Molecules are shown by their SMILES.

T1 sequence (P41594 21-1180 isoform P41594-2 limits assumed): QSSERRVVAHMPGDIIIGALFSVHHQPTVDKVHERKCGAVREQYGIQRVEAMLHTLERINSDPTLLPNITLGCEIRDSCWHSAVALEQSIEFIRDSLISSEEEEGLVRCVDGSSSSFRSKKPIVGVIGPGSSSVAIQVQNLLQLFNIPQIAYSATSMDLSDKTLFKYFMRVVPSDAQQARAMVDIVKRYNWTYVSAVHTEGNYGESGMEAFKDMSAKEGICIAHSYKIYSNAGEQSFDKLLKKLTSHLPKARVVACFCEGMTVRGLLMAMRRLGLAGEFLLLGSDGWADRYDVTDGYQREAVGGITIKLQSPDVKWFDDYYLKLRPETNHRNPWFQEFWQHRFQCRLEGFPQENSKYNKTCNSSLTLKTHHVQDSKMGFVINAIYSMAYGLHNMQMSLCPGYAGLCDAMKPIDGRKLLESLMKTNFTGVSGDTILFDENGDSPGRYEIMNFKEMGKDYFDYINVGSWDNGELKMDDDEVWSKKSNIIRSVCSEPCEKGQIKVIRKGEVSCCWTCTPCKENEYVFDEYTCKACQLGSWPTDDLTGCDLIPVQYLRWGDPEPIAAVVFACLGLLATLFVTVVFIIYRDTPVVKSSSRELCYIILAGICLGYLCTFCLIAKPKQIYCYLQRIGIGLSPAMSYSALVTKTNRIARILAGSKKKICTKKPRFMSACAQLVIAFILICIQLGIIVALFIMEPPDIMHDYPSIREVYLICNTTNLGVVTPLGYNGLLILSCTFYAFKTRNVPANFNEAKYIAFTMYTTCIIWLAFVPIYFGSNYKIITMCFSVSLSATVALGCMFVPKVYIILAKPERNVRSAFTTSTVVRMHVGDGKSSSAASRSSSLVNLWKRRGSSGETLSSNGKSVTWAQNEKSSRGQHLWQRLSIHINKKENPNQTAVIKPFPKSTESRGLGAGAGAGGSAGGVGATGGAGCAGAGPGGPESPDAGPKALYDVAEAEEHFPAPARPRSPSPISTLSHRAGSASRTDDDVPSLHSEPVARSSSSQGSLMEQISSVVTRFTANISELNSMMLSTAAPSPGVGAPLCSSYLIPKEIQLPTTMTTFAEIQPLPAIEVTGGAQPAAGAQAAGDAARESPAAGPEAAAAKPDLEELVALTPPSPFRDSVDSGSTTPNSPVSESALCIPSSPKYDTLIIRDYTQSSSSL

What is called melting point is the temperature, or range, at which the solid turns liquid. In turn, `Cc1cc(Cl)cc(C(=O)Nc2ccc(Cl)cn2)n1` [Example 17, 4-Chloro-6-methyl-pyridine-2-carboxylic acid (5-chloro-pyridin-2-yl)-amide] yielded a melting point of 151 °C.
Take `CC(C)c1cc(C#N)cc(C(=O)Nc2ccn(C)n2)n1` [Example 13, 4-Cyano-6-isopropyl-pyridine-2-carboxylic acid (1-methyl-1H-pyrazol-3-yl)-amide]: the melting point is 174 °C.
By Ki is commonly meant the dissociation constant of the complex between target and ligand, obtained from inhibition or displacement. Molecule `N#Cc1cc(C(=O)Nc2ccc(F)cn2)nc(C(F)(F)F)c1` [Example 16, 4-Cyano-6-trifluoromethyl-pyridine-2-carboxylic acid (5-fluoro-pyridin-2-yl)-amide] came in with a melting point of 186.5 °C. Further, on human mGlu 5a receptor, the Ki is 139 nM.
`CCc1cc(Br)cc(C(=O)Nc2ccc(F)cn2)n1` [Example 21, 4-Bromo-6-ethyl-pyridine-2-carboxylic acid (5-fluoro-pyridin-2-yl)-amide] registered a melting point of 123.5 °C.
Consider `Cc1cc(C#N)cc(C(=O)Nc2nc(C)cs2)n1` [Example 3, 4-Cyano-6-methyl-pyridine-2-carboxylic acid (4-methyl-thiazol-2-yl)-amide], for which the melting point amounted to 211 °C. In addition, the Ki on human mGlu 5a receptor is 15 nM.
The like results for `Cc1ccc(NC(=O)c2cc(Cl)cc(C)n2)nc1` [Example 19, 4-Chloro-6-methyl-pyridine-2-carboxylic acid (5-methyl-pyridin-2-yl)-amide] were, in that order, 159 °C and 109 nM.
Molecule `CCc1cc(C#N)cc(C(=O)Nc2ccn(C)n2)n1` [Example 24, 4-Cyano-6-ethyl-pyridine-2-carboxylic acid (1-methyl-1H-pyrazol-3-yl)-amide] showed a melting point of 164.5 °C. Besides, the Ki on human mGlu 5a receptor worked out at 36 nM.
`Cc1cc(Cl)cc(C(=O)Nc2ccnc(Cl)c2)n1` [Example 34, 4-Chloro-6-methyl-pyridine-2-carboxylic acid (2-chloro-pyridin-4-yl)-amide] gave a melting point of 221 °C.
The molecule `Cc1cccc(NC(=O)c2cc(Cl)cc(C)n2)c1` [Example 51, 4-Chloro-6-methyl-pyridine-2-carboxylic acid m-tolylamide] had a melting point of 95 °C. Further, the Ki on human mGlu 5a receptor was determined as 97 nM.
Consider `Cc1cc(C#N)cc(C(=O)Nc2ccc(Cl)cn2)n1` [Example 9, 4-Cyano-6-methyl-pyridine-2-carboxylic acid (5-chloro-pyridin-2-yl)-amide], for which the melting point came to 233.5 °C. Further, the inhibition constant (Ki) on human mGlu 5a receptor amounted to 8 nM.
`Cn1ccc(NC(=O)c2cc(C#N)cc(C(F)(F)F)n2)n1` [Example 15, 4-Cyano-6-trifluoromethyl-pyridine-2-carboxylic acid (1-methyl-1H-pyrazol-3-yl)-amide]: the melting point is 190.5 °C.
As for `Cc1cc(Cl)cc(C(=O)Nc2cccc(Cl)c2)n1` [Example 37, 4-Chloro-6-methyl-pyridine-2-carboxylic acid (3-chloro-phenyl)-amide], the melting point stood at 174 °C. Further, the Ki on human mGlu 5a receptor came to 55 nM.
The molecule `Cc1cc(C#N)cc(C(=O)Nc2ccc(F)c(C)n2)n1` [Example 11] registered a melting point of 222 °C. Further, the Ki on human mGlu 5a receptor came to 57 nM.
Turning to `Cc1cc(C#N)c(C)c(C(=O)Nc2ccc(F)cn2)n1` [Example 27, 4-Cyano-3,6-dimethyl-pyridine-2-carboxylic acid (5-fluoro-pyridin-2-yl)-amide], the melting point came out at 196.5 °C. Further, on human mGlu 5a receptor, the Ki came to 31 nM.
In the same order, the values of `Cc1cc(C#N)cc(C(=O)Nc2ccc(F)c(C)c2)n1` [Example 49, 4-Cyano-6-methyl-pyridine-2-carboxylic acid (4-fluoro-3-methyl-phenyl)-amide] are 177 °C and 72 nM.
The like results for `Cc1cc(C#N)cc(C(=O)Nc2ccnc(Cl)c2)n1` [Example 22, 4-Cyano-6-methyl-pyridine-2-carboxylic acid (2-chloro-pyridin-4-yl)-amide] were, in that order, 238.5 °C and 25 nM.
`Cc1cc(C#N)cc(C(=O)Nc2cccc(F)c2)n1` [Example 41, 4-Cyano-6-methyl-pyridine-2-carboxylic acid (3-fluoro-phenyl)-amide]: the melting point worked out at 139 °C. The Ki on human mGlu 5a receptor was determined as 9 nM.
The molecule `COc1cccc(NC(=O)c2cc(C#N)cc(C)n2)c1` [Example 45, 4-Cyano-6-methyl-pyridine-2-carboxylic acid (3-methoxy-phenyl)-amide] had a melting point of 189 °C. The Ki at human mGlu 5a receptor was 57 nM.
In the same order, the values of `Cc1cccc(NC(=O)c2cc(Cl)cc(C)n2)n1` [Example 36, 4-Chloro-6-methyl-pyridine-2-carboxylic acid (6-methyl-pyridin-2-yl)-amide] are 130.5 °C and 15 nM.
`Cc1cc(Cl)cc(C(=O)Nc2ccc(F)cn2)n1` [Example 18, 4-Chloro-6-methyl-pyridine-2-carboxylic acid (5-fluoro-pyridin-2-yl)-amide]: the melting point worked out at 156 °C. Further, the Ki on human mGlu 5a receptor came out at 30 nM.
For the molecule `Cc1cc(Cl)cc(C(=O)Nc2ccn(C)n2)n1` [Example 2, 4-Chloro-6-methyl-pyridine-2-carboxylic acid (1-methyl-1H-pyrazol-3-yl)-amide], the melting point worked out at 203.5 °C. For the same molecule, the inhibition constant (Ki) on human mGlu 5a receptor came out at 73 nM.
With `Cc1cc(C#N)c(C)c(C(=O)Nc2ccc(F)c(C)n2)n1` [Example 28, 4-Cyano-3,6-dimethyl-pyridine-2-carboxylic acid (5-fluoro-6-methyl-pyridin-2-yl)-amide], the melting point was found to be 201 °C.
As to `Cc1cccc(NC(=O)c2cc(C#N)cc(C)n2)n1` [Example 47, 4-Cyano-6-methyl-pyridine-2-carboxylic acid (6-methyl-pyridin-2-yl)-amide], the melting point was determined as 243.5 °C. Also, the Ki on human mGlu 5a receptor was found to be 18 nM.
On to `Cc1cc(NC(=O)c2cc(Cl)cc(C)n2)ccn1` [Example 53, 4-Chloro-6-methyl-pyridine-2-carboxylic acid (2-methyl-pyridin-4-yl)-amide], for which the melting point stood at 162 °C.
Same read-out and setting: then `Cc1cc(Cl)cc(C(=O)Nc2cccc(F)c2)n1` [Example 52, 4-Chloro-6-methyl-pyridine-2-carboxylic acid (3-fluoro-phenyl)-amide], with 123 °C; and `Cc1cc(C#N)cc(C(=O)Nc2ccc(F)cc2)n1` [Example 39, 4-Cyano-6-methyl-pyridine-2-carboxylic acid (4-fluoro-phenyl)-amide], with 189 °C; and `Cc1ccc(NC(=O)c2nc(C)cc(C#N)c2C)nc1` [Example 32, 4-Cyano-3,6-dimethyl-pyridine-2-carboxylic acid (5-methyl-pyridin-2-yl)-amide], with 212.5 °C.
Same read-out and setting: the same measure for `Cc1cc(C#N)c(C)c(C(=O)Nc2ccc(C#N)cn2)n1` [Example 31, 4-Cyano-3,6-dimethyl-pyridine-2-carboxylic acid (5-cyano-pyridin-2-yl)-amide]: 216 °C; for `N#Cc1cc(C(=O)Nc2ccc(Cl)cn2)nc(C(F)(F)F)c1` [Example 33, 4-Cyano-6-trifluoromethyl-pyridine-2-carboxylic acid (5-chloro-pyridin-2-yl)-amide]: 208 °C.

The values are drawn from patent US20100227887A1 (priority 2009, published 2010).
